Key:
[1] = molecular target: T1, Solute carrier organic anion transporter family member 1B1 (Homo sapiens, UniProt Q9Y6L6); assay: Inhibition of human liver OATP1B1 expressed in HEK293 Flp-In cells assessed as reduction in E17-betaG uptake at 20 uM by scintillation counting; details: hek293, 20 µM
T1 sequence (Q9Y6L6 whole entry): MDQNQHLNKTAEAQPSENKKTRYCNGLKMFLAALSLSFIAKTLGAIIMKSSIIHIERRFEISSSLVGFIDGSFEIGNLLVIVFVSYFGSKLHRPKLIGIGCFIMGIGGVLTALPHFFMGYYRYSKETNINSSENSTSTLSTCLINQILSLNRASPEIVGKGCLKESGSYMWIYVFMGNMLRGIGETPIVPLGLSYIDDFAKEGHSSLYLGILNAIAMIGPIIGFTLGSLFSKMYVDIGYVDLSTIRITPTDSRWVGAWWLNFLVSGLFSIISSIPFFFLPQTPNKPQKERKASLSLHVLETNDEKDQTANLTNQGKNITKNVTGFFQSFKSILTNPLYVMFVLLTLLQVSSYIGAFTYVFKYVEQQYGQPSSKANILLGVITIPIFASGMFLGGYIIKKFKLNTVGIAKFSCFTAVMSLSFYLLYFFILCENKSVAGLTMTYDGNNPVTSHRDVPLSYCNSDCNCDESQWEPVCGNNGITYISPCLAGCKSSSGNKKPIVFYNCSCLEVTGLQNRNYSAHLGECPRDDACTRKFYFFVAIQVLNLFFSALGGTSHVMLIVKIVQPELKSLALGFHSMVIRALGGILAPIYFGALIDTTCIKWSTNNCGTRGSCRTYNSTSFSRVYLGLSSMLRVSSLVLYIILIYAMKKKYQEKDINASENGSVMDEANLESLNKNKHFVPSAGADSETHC

[2] = molecular target: T2, Solute carrier organic anion transporter family member 1B3 (Homo sapiens, UniProt Q9NPD5); assay: Inhibition of human liver OATP1B3 expressed in HEK293 Flp-In cells assessed as reduction in [3H]E17-betaG uptake at 20 uM incubated for 5 mins by scintillation counting; details: hek293, 5 min
T2 sequence (Q9NPD5 whole entry): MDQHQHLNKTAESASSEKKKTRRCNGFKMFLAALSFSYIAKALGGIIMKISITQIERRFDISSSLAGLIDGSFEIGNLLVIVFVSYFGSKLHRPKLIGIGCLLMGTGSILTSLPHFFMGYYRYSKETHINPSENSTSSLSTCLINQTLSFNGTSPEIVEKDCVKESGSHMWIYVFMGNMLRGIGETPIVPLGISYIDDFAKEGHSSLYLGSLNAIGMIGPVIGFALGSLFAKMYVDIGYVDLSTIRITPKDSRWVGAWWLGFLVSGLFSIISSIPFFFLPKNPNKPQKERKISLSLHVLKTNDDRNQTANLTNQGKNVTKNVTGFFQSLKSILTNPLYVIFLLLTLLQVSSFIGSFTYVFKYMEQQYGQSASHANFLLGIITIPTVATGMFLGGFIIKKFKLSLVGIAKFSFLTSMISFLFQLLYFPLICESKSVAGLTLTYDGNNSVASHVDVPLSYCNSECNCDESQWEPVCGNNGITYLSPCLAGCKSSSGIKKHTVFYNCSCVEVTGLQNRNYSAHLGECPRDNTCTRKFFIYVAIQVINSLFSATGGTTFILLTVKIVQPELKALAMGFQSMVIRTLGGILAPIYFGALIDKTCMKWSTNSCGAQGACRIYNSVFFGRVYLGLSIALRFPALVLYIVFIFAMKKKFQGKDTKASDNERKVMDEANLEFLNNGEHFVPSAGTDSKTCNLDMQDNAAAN

[3] = molecular target: T3, Solute carrier organic anion transporter family member 2B1 (Homo sapiens, UniProt O94956); assay: Inhibition of human liver OATP2B1 expressed in HEK293 Flp-In cells assessed as reduction in [3H]E3S uptake at 20 uM incubated for 5 mins by scintillation counting; details: hek293, 5 min
T3 sequence (O94956 whole entry): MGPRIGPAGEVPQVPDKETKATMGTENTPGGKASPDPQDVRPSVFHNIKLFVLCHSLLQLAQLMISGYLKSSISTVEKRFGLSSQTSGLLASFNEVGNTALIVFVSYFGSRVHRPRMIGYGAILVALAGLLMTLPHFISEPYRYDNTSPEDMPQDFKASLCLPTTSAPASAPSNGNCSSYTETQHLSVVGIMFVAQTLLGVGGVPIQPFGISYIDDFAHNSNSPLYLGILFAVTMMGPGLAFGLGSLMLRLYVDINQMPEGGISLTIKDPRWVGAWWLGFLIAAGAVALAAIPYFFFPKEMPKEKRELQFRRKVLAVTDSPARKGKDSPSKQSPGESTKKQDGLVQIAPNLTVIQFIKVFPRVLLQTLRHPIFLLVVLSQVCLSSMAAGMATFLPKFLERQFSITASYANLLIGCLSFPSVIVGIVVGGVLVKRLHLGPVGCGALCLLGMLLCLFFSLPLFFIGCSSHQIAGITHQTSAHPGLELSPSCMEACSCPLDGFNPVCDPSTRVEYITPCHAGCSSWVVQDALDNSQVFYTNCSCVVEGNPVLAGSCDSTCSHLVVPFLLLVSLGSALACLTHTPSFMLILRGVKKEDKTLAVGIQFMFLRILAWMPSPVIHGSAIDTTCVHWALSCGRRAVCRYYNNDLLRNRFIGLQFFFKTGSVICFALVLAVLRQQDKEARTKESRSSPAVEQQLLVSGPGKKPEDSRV

CCOc1nc2cccc(C(=O)O)c2n1Cc1ccc(-c2ccccc2-c2nnn[nH]2)cc1
INH [1]: 52.1%
INH [2]: 28.6%
INH [3]: 28.4%

CCCc1nc2c(C)cc(-c3nc4ccccc4n3C)cc2n1Cc1ccc(-c2ccccc2C(=O)O)cc1
INH [1]: 109.4%
INH [2]: 91.5%
INH [3]: 94.9%

CCCCC(=O)N(Cc1ccc(-c2ccccc2-c2nnn[nH]2)cc1)[C@H](C(=O)O)C(C)C
INH [1]: 62.2%
INH [2]: 33.7%
INH [3]: 12.3%

CC(C)(C)NC(=O)[C@@H]1C[C@@H]2CCCC[C@@H]2CN1C[C@@H](O)[C@H](Cc1ccccc1)NC(=O)[C@H](CC(N)=O)NC(=O)c1ccc2ccccc2n1
INH [2]: 6.6%

CC(C)CN(C[C@@H](O)[C@H](Cc1ccccc1)NC(=O)O[C@H]1CCOC1)S(=O)(=O)c1ccc(N)cc1
INH [1]: 79.3%
INH [2]: 16.3%
INH [3]: -3.4%

CN1CCC[C@@H]1Cc1c[nH]c2ccc(CCS(=O)(=O)c3ccccc3)cc12
INH [1]: 31.7%
INH [2]: 2.8%
INH [3]: 0.4%

CCCc1nn(C)c2c(=O)[nH]c(-c3cc(S(=O)(=O)N4CCN(C)CC4)ccc3OCC)nc12
INH [1]: 22.2%
INH [2]: 30.8%
INH [3]: 45.9%

CCC[C@@]1(CCc2ccccc2)CC(O)=C([C@H](CC)c2cccc(NS(=O)(=O)c3ccc(C(F)(F)F)cn3)c2)C(=O)O1
INH [1]: 89.5%
INH [2]: 109%
INH [3]: 99%

C=C[C@H]1C[N+]2(C)CC[C@H]1C[C@@H]2[C@@H](O)c1ccnc2ccc(OC)cc12
INH [1]: -6.1%
INH [2]: 21%
INH [3]: -10.3%

COc1cc2c(cc1OC)CN(CCc1ccc(NC(=O)c3cccc4c(=O)c5cccc(OC)c5[nH]c34)cc1)CC2
INH [1]: 94.4%
INH [2]: 37.4%
INH [3]: 67.2%

COc1ccc2c3c([nH]c2c1)[C@H](CC(C)C)N1C(=O)[C@H](CCC(=O)OC(C)(C)C)NC(=O)[C@@H]1C3
INH [1]: 59.3%
INH [2]: 24.2%
INH [3]: 78.8%

Cc1ccc(N(CC(=O)O)CC(=O)O)c(OCCOc2cc(-c3c4cc(Cl)c(=O)cc-4oc4cc(O)c(Cl)cc34)ccc2N(CC(=O)O)CC(=O)O)c1
INH [2]: 88.5%

CC(C)(C)NC(=O)[C@@H]1CN(Cc2cccnc2)CCN1C[C@@H](O)C[C@@H](Cc1ccccc1)C(=O)N[C@H]1c2ccccc2C[C@H]1O.O
INH [1]: 71.9%
INH [2]: 18.1%
INH [3]: 17.8%

CCOC(=O)[C@H](CCc1ccccc1)N[C@@H](C)C(=O)N1CCC[C@H]1C(=O)O
INH [1]: -7.5%
INH [2]: 4.1%
INH [3]: 19.7%

Cc1c(O)cccc1C(=O)N[C@@H](CSc1ccccc1)[C@H](O)CN1C[C@H]2CCCC[C@H]2C[C@H]1C(=O)NC(C)(C)C
INH [1]: 71.3%
INH [2]: 59.3%
INH [3]: 50%

COc1ccc(CCN(C)CCCC(C#N)(c2ccc(OC)c(OC)c2)C(C)C)cc1OC (stereo not given)
INH [2]: -9%
INH [3]: -62.6%

C[C@H]1O[C@H](O[C@H]2[C@H](O)[C@@H](O)[C@@H](O[C@H]3[C@H](O)[C@@H](O)C(O)O[C@@H]3CO)O[C@@H]2CO)[C@H](O)[C@@H](O)[C@@H]1N[C@H]1C=C(CO)[C@@H](O)[C@H](O)[C@H]1O (stereo not given in full) [ACARBOSE]
INH [1]: 14.9%
INH [2]: 17.7%
INH [3]: 0.1%

Nc1nc2c(ncn2COCCO)c(=O)[nH]1 [ACYCLOVIR]
INH [1]: 2.3%
INH [2]: -2%
INH [3]: -15.2%

Oc1ncnc2[nH]ncc12 [ALLOPURINOL]
INH [1]: -35.6%
INH [2]: 10.8%
INH [3]: 8.4%

NC12CC3CC(CC(C3)C1)C2 [AMANTADINE]
INH [1]: 26.4%
INH [2]: 10%
INH [3]: 17%

Nc1ccc(C(=O)NCC(=O)O)cc1 [AMINOHIPPURIC ACID]
INH [1]: 30.1%
INH [2]: 23.7%
INH [3]: 27.4%

CN(C)CCC=C1c2ccccc2CCc2ccccc21 [AMITRIPTYLINE]
INH [1]: 10.5%
INH [2]: 22%
INH [3]: -8.9%

COc1ccc(CCN2CCC(Nc3nc4ccccc4n3Cc3ccc(F)cc3)CC2)cc1 [ASTEMIZOLE]
INH [1]: 22.3%
INH [2]: 24.4%
INH [3]: 58.9%

CNCCCN1c2ccccc2CCc2ccccc21 [DESIPRAMINE]
INH [2]: 3.2%
INH [3]: -4.4%

CN(CCOc1ccc(NS(C)(=O)=O)cc1)CCc1ccc(NS(C)(=O)=O)cc1 [DOFETILIDE]
INH [1]: 1%
INH [2]: 19.9%

Nc1nc(=O)n([C@@H]2CS[C@H](CO)O2)cc1F [EMTRICITABINE]
INH [1]: 6.4%
INH [2]: 17.1%

COc1cc([C@@H]2c3cc4c(cc3[C@@H](O[C@@H]3O[C@@H]5CO[C@@H](C)O[C@H]5[C@H](O)[C@H]3O)[C@H]3COC(=O)[C@H]23)OCO4)cc(OC)c1O [ETOPOSIDE]
INH [3]: 6.8%

CC(C)n1c(/C=C/C(O)CC(O)CC(=O)O)c(-c2ccc(F)cc2)c2ccccc21 (stereo not given) [FLUVASTATIN]
INH [2]: 76%

COc1ccc(Cl)cc1C(=O)NCCc1ccc(S(=O)(=O)NC(=O)NC2CCCCC2)cc1 [GLYBURIDE]
INH [2]: 49.3%
INH [3]: 77.4%

O=C1CN(/N=C/c2ccc([N+](=O)[O-])o2)C(=O)N1 [NITROFURANTOIN]
INH [2]: -1.5%
INH [3]: 23.1%

CCCCC1C(=O)N(c2ccccc2)N(c2ccccc2)C1=O [PHENYLBUTAZONE]
INH [2]: 17%

CCCN(CCC)S(=O)(=O)c1ccc(C(=O)O)cc1 [PROBENECID]
INH [1]: 35.2%
INH [2]: 22%

C=C[C@H]1C[N@@]2CC[C@H]1C[C@@H]2[C@@H](O)c1ccnc2ccc(OC)cc12 [QUINIDINE]
INH [1]: 43.3%

C=C[C@H]1C[N@@]2CC[C@H]1C[C@H]2[C@H](O)c1ccnc2ccc(OC)cc12 [QUININE]
INH [1]: 54%

COC(=O)[C@H]1[C@H]2C[C@@H]3c4[nH]c5cc(OC)ccc5c4CCN3C[C@H]2C[C@@H](OC(=O)c2cc(OC)c(OC)c(OC)c2)[C@@H]1OC [RESERPINE]
INH [1]: 67.2%
INH [3]: 72.3%

CCC(C)(C)C(=O)O[C@H]1C[C@@H](C)C=C2C=C[C@H](C)[C@H](CC[C@@H]3C[C@@H](O)CC(=O)O3)[C@H]21 [SIMVASTATIN]
INH [2]: 29.3%
INH [3]: 47.4%

Nc1ccc(S(=O)(=O)Nc2ccnn2-c2ccccc2)cc1 [SULFAPHENAZOLE]
INH [2]: 0.7%
INH [3]: 17.1%

CC/C(=C(\c1ccccc1)c1ccc(OCCN(C)C)cc1)c1ccccc1 [TAMOXIFEN]
INH [2]: 28.5%
INH [3]: 11%

C[C@]12CC[C@H]3[C@@H](CCC4=CC(=O)CC[C@@]43C)[C@@H]1CC[C@@H]2O [TESTOSTERONE]
INH [3]: -175.1%
